Data published in patent US20230019491A1, “PYRIMIDINE TBK/IKKe INHIBITOR COMPOUNDS AND USES THEREOF” (Merck Patent GmbH, priority 2017, published 2023).
Where a name gives a salt, the structure may show the parent alone.

Legend:
[1] = target: T1, TBK1 (Homo sapiens, UniProt Q9UHD2); assay: TBK biochemical assay; conditions: 10 point 1:4 dose response, 30 uM top concentration, 90 min at 25° C., LabChip EZ Reader II; read-out: TBK1_IC50
T1 sequence (Q9UHD2 1-729): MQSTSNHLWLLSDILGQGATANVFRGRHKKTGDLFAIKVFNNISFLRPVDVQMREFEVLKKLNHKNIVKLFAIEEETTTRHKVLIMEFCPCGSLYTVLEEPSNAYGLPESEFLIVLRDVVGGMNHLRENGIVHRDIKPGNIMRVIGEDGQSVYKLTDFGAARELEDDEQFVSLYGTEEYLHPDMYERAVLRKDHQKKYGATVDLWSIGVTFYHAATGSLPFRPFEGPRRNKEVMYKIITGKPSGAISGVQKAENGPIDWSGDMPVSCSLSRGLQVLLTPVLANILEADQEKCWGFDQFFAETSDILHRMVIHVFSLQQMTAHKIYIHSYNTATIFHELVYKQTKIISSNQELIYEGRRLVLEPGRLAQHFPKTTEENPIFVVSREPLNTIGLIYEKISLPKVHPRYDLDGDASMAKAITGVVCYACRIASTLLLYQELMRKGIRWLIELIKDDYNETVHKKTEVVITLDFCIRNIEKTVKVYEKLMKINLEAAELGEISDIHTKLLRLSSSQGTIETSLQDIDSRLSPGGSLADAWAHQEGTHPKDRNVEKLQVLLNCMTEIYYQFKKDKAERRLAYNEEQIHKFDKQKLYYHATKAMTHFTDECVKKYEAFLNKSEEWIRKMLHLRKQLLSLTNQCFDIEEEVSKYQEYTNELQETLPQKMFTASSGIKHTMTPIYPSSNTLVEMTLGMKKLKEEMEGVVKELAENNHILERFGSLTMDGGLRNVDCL
Method in brief: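 Substrate and product were separated and quantified by microfluidic mobility-shift read (LabChip). 10 uM staurosporine served as the full-inhibition control, and the reference compound was tested from 1 uM final.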

[2] = target: T2, IKKε (Homo sapiens, UniProt Q14164); assay: IKKε biochemical assay; conditions: 10 point 1:4 dose response, 30 uM top concentration, 90 min at 25° C., LabChip EZ Reader II; read-out: IKKε_IC50
T2 sequence (Q14164 1-716): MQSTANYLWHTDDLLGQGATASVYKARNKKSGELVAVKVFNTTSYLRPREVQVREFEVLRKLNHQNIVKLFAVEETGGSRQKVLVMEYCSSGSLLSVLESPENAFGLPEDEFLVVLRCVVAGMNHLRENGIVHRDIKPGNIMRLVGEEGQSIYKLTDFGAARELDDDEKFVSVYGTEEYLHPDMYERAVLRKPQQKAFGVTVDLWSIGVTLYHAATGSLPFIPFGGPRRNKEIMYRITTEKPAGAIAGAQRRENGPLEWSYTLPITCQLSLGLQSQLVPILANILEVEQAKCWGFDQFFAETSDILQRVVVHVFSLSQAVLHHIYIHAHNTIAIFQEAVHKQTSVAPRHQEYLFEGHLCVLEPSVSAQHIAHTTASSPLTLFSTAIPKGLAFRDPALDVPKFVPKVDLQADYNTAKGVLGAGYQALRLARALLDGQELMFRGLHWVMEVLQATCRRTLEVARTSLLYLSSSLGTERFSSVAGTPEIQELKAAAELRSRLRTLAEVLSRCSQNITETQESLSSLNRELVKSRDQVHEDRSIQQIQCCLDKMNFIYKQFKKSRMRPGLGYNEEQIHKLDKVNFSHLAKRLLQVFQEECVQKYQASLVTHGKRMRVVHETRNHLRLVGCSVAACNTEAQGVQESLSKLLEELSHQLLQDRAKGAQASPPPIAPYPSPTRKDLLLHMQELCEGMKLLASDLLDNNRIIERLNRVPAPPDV
Method in brief: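 Compounds in 1% DMSO final were incubated with IKKε enzyme and substrate at 25° C. for 90 min, then stopped. Substrate and product peaks were resolved by LabChip EZ Reader II mobility-shift read-out. Staurosporine at 10 uM final served as the full-inhibition control.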

`COc1nc(Nc2nccc(-c3ccc(OC4CCN(C(=O)[C@@H](O)C(C)C)CC4(F)F)c(C#N)c3)n2)ccc1C1CCN(C2COC2)CC1` (stereo partly drawn) [Example 236, 2-[3,3-Difluoro-1-((S)-2-hydroxy-3-methyl-butyryl)-piperidin-4-yloxy]-5-[2-(2-methoxy-1′-oxetan-3-yl-1′,2′,3′,4′,5′,6′-hexahydro-[3,4′]bipyridinyl-6-ylamino)-pyrimidin-4-yl]-benzonitrile] was tested, and the IC50 [1] was less than 100 nM and the IC50 [2] was less than 100 nM.

`COc1nc(Nc2nccc(-c3ccc(OC4CCN(C(=O)[C@@H](O)CO)CC4(F)F)c(C#N)c3)n2)ccc1N1CCN(C2COC2)[C@H](C)C1` (stereo partly drawn) [Example 262, 2-[1-((S)-2,3-Dihydroxy-propionyl)-3,3-difluoro-piperidin-4-yloxy]-5-{2-[6-methoxy-5-((R)-3-methyl-4-oxetan-3-yl-piperazin-1-yl)-pyridin-2-ylamino]-pyrimidin-4-yl}-benzonitrile] showed an IC50 [1] of less than 100 nM and an IC50 [2] of less than 100 nM.

`COc1nc(Nc2nccc(-c3ccc(OC4CCOCC4)c(C#N)c3)n2)ccc1CNC1CCN(C)CC1` [Example 41, 5-[2-[(6-methoxy-5-[[(1-methylpiperidin-4-yl)amino]methyl]pyridin-2-yl)amino]pyrimidin-4-yl]-2-(oxan-4-yloxy)benzonitrile hydrochloride] showed an IC50 [1] of less than 100 nM and an IC50 [2] of less than 100 nM.

`COc1nc(Nc2nccc(-c3ccc(OC4CCN(C(=O)[C@@H](O)CO)CC4(F)F)c(C#N)c3)n2)ccc1N1CCN(C2COC2)C[C@H]1C` (stereo partly drawn) [Example 133, 2-[1-((S)-2,3-Dihydroxy-propionyl)-3,3-difluoro-piperidin-4-yloxy]-5-{2-[6-methoxy-5-((R)-2-methyl-4-oxetan-3-yl-piperazin-1-yl)-pyridin-2-ylamino]-pyrimidin-4-yl}-benzonitrile] gave an IC50 [1] of less than 100 nM and an IC50 [2] of less than 100 nM.

`COc1nc(Nc2nccc(-c3ccc(OC4CCNCC4)c(C#N)c3)n2)ccc1N1CCN(C)CC1` [Example 89, 5-(2-[[6-methoxy-5-(4-methylpiperazin-1-yl)pyridin-2-yl]amino]pyrimidin-4-yl)-2-(piperidin-4-yloxy)benzonitrile] showed an IC50 [1] of less than 100 nM and an IC50 [2] of less than 100 nM.

For `COc1nc(Nc2ncc(F)c(-c3ccc(OC4CCN(C(=O)[C@H](C)O)CC4(F)F)c(C#N)c3)n2)ccc1N1CCN(C2COC2)CC1` (stereo partly drawn) [Example 287, 2-([3,3-difluoro-1-[(2S)-2-hydroxypropanoyl]piperidin-4-yl]oxy)-5-[5-fluoro-2-([6-methoxy-5-[4-(oxetan-3-yl)piperazin-1-yl]pyridin-2-yl]amino)pyrimidin-4-yl]benzonitrile], the IC50 [1] was less than 100 nM and the IC50 [2] was less than 100 nM.

Compound `COc1nc(Nc2nccc(-c3ccc(OC4CCNC4)c(C#N)c3)n2)ccc1N1CCN(C2COC2)CC1` (centres unmarked) [Example 182, 5-[2-([6-methoxy-5-[4-(oxetan-3-yl)piperazin-1-yl]pyridin-2-yl]amino)pyrimidin-4-yl]-2-(pyrrolidin-3-yloxy)benzonitrile] has an IC50 [1] of less than 100 nM and an IC50 [2] of less than 100 nM.

In the case of `COc1cc(Nc2nccc(-c3ccc(OC4CCN(C(=O)CO)CC4(F)F)c(C#N)c3)n2)ccn1` (centres unmarked) [Example 326, 2-[[3,3-difluoro-1-(2-hydroxyacetyl)piperidin-4-yl]oxy]-5-[2-[(2-methoxypyridin-4-yl)amino]pyrimidin-4-yl]benzonitrile], the IC50 [1] is reported as less than 100 nM and the IC50 [2] is reported as less than 100 nM.

For `COc1nc(Nc2nccc(-c3ccc(OC4(C)CCN(C(=O)[C@@H](O)CO)CC4)c(C#N)c3)n2)ccc1N1CCN(C2COC2)CC1` [Example 269, 2-[1-((S)-2,3-Dihydroxy-propionyl)-4-methyl-piperidin-4-yloxy]-5-{2-[6-methoxy-5-(4-oxetan-3-yl-piperazin-1-yl)-pyridin-2-ylamino]-pyrimidin-4-yl}-benzonitrile], the IC50 [1] was less than 100 nM and the IC50 [2] was less than 100 nM.

Compound `COc1nc(Nc2nccc(-c3ccc(OC4CCN(C(=O)C(C)C#N)CC4(F)F)c(C#N)c3)n2)ccc1N1CCN(C2COC2)CC1` (centres unmarked) [Example 251, 2-[1-(2-Cyano-2-methyl-acetyl)-33-difluoro-piperidin-4-yloxy]-5-{2-[6-methoxy-5-(4-oxetan-3-yl-piperazin-1-yl)-pyridin-2-ylamino]-pyrimidin-4-yl}-benzonitrile] has an IC50 [1] of less than 100 nM and an IC50 [2] of less than 100 nM.

`CC(O)C(=O)N1CCC(Oc2ccc(-c3nc(Nc4ccc(N5CCN(C6COC6)CC5)cc4)ncc3F)cc2C#N)C(F)(F)C1` (centres unmarked) [Example 299, 2-{[3,3-difluoro-1-(2-hydroxypropanoyl)piperidin-4-yl]oxy}-5-[5-fluoro-2-({4-[4-(oxetan-3-yl)piperazin-1-yl]phenyl}amino)pyrimidin-4-yl]benzonitrile] gave an IC50 [1] of less than 100 nM and an IC50 [2] of less than 100 nM.

`COc1nc(Nc2nccc(-c3ccc(OC4CCOCC4)c(C#N)n3)n2)ccc1C(=O)NC1CN2CCC1CC2` (centres unmarked) [Example 29, N-[1-azabicyclo[2.2.2]octan-3-yl]-6-([4-[6-cyano-5-(oxan-4-yloxy)pyridin-2-yl]pyrimidin-2-yl]amino)-2-methoxypyridine-3-carboxamide] gave an IC50 [1] of less than 100 nM and an IC50 [2] of less than 100 nM.

`COc1nc(Nc2nccc(-c3ccc(NC4CCOCC4)c(C#N)c3)n2)ccc1C(=O)N(C)C` [Example 63, 6-[(4-[3-cyano-4-[(oxan-4-yl)amino]phenyl]pyrimidin-2-yl)amino]-2-methoxy-N,N-dimethylpyridine-3-carboxamide] was tested, and the IC50 [1] was less than 100 nM and the IC50 [2] was less than 100 nM.

Compound `COc1nc(Nc2nccc(-c3ccc(OC4CCN(C(=O)[C@@H](C)O)CC4(F)F)c(C#N)c3)n2)ccc1C1CCN(C2COC2)CC1` (stereo partly drawn) [Example 330, 2-([3,3-difluoro-1-[(2R)-2-hydroxypropanoyl]piperidin-4-yl]oxy)-5-[2-([6-methoxy-5-[1-(oxetan-3-yl)piperidin-4-yl]pyridin-2-yl]amino)pyrimidin-4-yl]benzonitrile] has an IC50 [1] of less than 100 nM and an IC50 [2] of less than 100 nM.

Compound `CN1CCN(c2ccc(Nc3nccc(-c4ccc(OC5CCOCC5)c(C#N)c4)n3)nc2)CC1` [Example 164, 5-(2-[[5-(4-methylpiperazin-1-yl)pyridin-2-yl]amino]pyrimidin-4-yl)-2-(oxan-4-yloxy)benzonitrile] has an IC50 [1] of less than 100 nM and an IC50 [2] of less than 100 nM.

For `COc1cccc(Nc2nccc(-c3ccc(OC4CCN(C(=O)[C@@H](O)CO)CC4(F)F)c(C#N)c3)n2)n1` (stereo partly drawn) [Example 242, 2-[1-((S)-2,3-Dihydroxy-propionyl)-3,3-difluoro-piperidin-4-yloxy]-5-[2-(6-methoxy-pyridin-2-ylamino)-pyrimidin-4-yl]-benzonitrile], the IC50 [1] was less than 100 nM and the IC50 [2] was less than 100 nM.

`COc1nc(Nc2nccc(-c3ccc(OC4CCN(C)CC4)c(C#N)c3)n2)ccc1N1CCN(C)CC1` [Example 88, 5-(2-[[6-methoxy-5-(4-methylpiperazin-1-yl)pyridin-2-yl]amino]pyrimidin-4-yl)-2-[(1-methylpiperidin-4-yl)oxy]benzonitrile] gave an IC50 [1] of 100 to 1000 nM and an IC50 [2] of 100 to 1000 nM.

`COc1nc(Nc2nccc(-c3ccc(OC4CCN(C(=O)[C@@H](C)O)CC4(F)F)c(C#N)c3)n2)ccc1N1CCN(C)[C@@H](C)C1` (stereo partly drawn) [Example 102, 2-[3,3-Difluoro-1-((R)-2-hydroxy-propionyl)-piperidin-4-yloxy]-5-{2-[5-((S)-3,4-dimethyl-piperazin-1-yl)-6-methoxy-pyridin-2-ylamino]-pyrimidin-4-yl}-benzonitrile] was tested, and the IC50 [1] was less than 100 nM and the IC50 [2] was less than 100 nM.

Work on `CN(C)C(=O)c1ccc(Nc2nccc(-c3ccc(OC4CCOCC4)c(C#N)c3)n2)cn1` [Example 23, 5-([4-[3-cyano-4-(oxan-4-yloxy)phenyl]pyrimidin-2-yl]amino)-N,N-dimethylpyridine-2-carboxamide] yielded an IC50 [1] of less than 100 nM and an IC50 [2] of less than 100 nM.
